US20210369853A1, “TARGETED PROTEASE DEGRADATION PLATFORM” (EUBULUS BIOTHERAPEUTICS INC., priority 2018, published 2021)
Where two headings read alike, the source gives them in different places.

Experiments:
Assay type in all cases: cell-based
[1] = tested on: Human Monocytic Leukemia MV4-11; assay: Cell proliferation experiment (Alarm blue, 72 h, EC50); settings: Homo sapiens
Method in brief: (§1)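 Log-phase cells were seeded in 96-well plates, then exposed to test compound in a 5-fold dilution series, in duplicate, for 72 h. Fluorescence read by Alarm blue. EC50 fitted with a four-parameter (Min, Max, Slope) equation.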

[2] = tested on: Human Colon Cancer HCT-116; assay: as above; settings: HCT116 cells
Method in brief: as §1

[3] = tested on: Human Small Cell Lung Cancer NCI-H82; assay: as above; settings: Homo sapiens, NCI-H82; NCIH82 cells
Method in brief: as §1

[4] = tested on: Human Acute Myelomonocytic Leukemia HL-60; assay: as above; settings: HL-60 cells
Method in brief: as §1

[5] = tested on: Human cervical adenocarcinoma cells Hela; assay: as above
Method in brief: as §1

Human Colon Cancer HT-29 = assay: as above; settings: HT-29 cells
Method in brief: as §1

[6] = tested on: Human Monocytic Leukemia THP-1; assay: as above; settings: THP-1 cells
Method in brief: as §1

[7] = tested on: Human Acute Lymphoblastic Leukemia Cells MOLT-4; assay: as above; settings: MOL4-4 cells
Method in brief: as §1

[8] = tested on: Human Breast Cancer MDA-MB-231; assay: as above; settings: MDA-MB-231 cells
Method in brief: as §1

[9] = tested on: Human Glioma Cells U-87 MG; assay: as above; settings: Homo sapiens; U-87MG cells
Method in brief: as §1

PLK1 = target: T1, PLK1 (Homo sapiens, UniProt P53350); assay: Western blot, protein degradation (DC50)
T1 construct: endogenous in cells
Method: (§2) Cells were treated with the compound for a period of time, after that the cells were collected by centrifugation. After washing with PBS, the cells were lysed by adding RIPA buffer; the cell lysate were added to the loading buffer and then appropriate volume were taken and slowly added to the corresponding wells of the gel plate, and run the SDS-PAGE gel (4%-12%). After running the gel, transferred to the PVDF membrane and sealed with 5% skimmed milk powder at room temperature for 1 hour. The membrane was placed in the primary antibody diluted with 5% skimmed milk powder and shaked slowly overnight at 4° C. After incubation with primary antibody, the membrane was washed 3 times using a TBST shaker; added secondary antibody diluted with 5% skimmed milk powder corresponding to the primary antibody, and shaked slowly at room temperature for 1 hour. After incubation with secondary antibody, the membrane was washed 3 times using the TBST shaker again. The PVDF membrane was flatted in the cassette, the strip was evenly infiltrated with ECL developer solution, and placed in ChemDoc XRS+ gel imager for taking pictures. The intensity of protein bands was analyzed quantitatively using ImageJ software.

BRD4 = target: T2, BRD4 (Homo sapiens, UniProt O60885); assay: Western blot, protein degradation (DC50)
T2 construct: endogenous in cells
Method: as §2

T1 sequence (P53350 whole entry): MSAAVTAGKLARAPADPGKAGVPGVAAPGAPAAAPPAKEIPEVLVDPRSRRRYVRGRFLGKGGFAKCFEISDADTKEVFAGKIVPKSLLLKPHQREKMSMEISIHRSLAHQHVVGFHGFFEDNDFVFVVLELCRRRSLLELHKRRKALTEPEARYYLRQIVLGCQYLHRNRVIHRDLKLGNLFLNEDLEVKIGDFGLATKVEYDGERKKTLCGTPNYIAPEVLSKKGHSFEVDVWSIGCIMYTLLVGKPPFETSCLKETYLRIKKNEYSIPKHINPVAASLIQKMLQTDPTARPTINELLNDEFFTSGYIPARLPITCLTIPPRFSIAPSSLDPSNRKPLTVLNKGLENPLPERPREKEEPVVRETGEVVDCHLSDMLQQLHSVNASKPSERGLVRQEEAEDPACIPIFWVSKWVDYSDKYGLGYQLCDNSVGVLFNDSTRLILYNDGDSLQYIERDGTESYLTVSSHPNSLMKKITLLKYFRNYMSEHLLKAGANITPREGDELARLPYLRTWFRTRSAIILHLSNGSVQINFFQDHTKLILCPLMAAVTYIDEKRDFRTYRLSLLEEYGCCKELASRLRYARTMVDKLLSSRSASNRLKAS

Row | Structure (SMILES) | EC50 ([1]; MV4-11, MV4;11 cells) [nM] | EC50 ([2]; Homo sapiens, HCT-116) [nM] | EC50 [3] [nM] | EC50 [4] [nM] | EC50 (Human Colon Cancer HT-29; Homo sapiens) [nM] | other results
1 | CC[C@@H]1C(=O)N(C)c2cnc(Nc3ccc(C(=O)NCCCNCCCCCCCC(=O)Nc4cccc5c4CN(C4CCC(=O)NC4=O)C5=O)cc3OC)nc2N1Cc1ccc(Br)cc1 (some centres unmarked) [UB-180628] | 10 to 100 | > 1000 | > 1000 |  |  | 
2 | O=C1CCC(N2Cc3c(NC(=O)CNCCOCCOCCOCCNC(=O)c4ccc(Nc5ncc6c(n5)-c5ccc(Cl)cc5C(c5c(F)cccc5F)=NC6)cc4)cccc3C2=O)C(=O)N1 (centres unmarked) [UB-180727] | 100 to 1000 |  |  | > 1000 |  | 
3 | CC[C@@H]1C(=O)N(C)c2cnc(Nc3ccc(C(=O)NC4CCN(CCOCCNCC(=O)Nc5cccc6c5CN(C5CCC(=O)NC5=O)C6=O)CC4)cc3OC)nc2N1C1CCCC1 (some centres unmarked) [UB-180699] |  |  | 100 to 1000 | 100 to 1000 | 100 to 1000 | EC50 ([5]; Homo sapiens): 100 to 1000 nM; EC50 [6]: 100 to 1000 nM; EC50 [7]: 100 to 1000 nM; EC50 ([8]; Homo sapiens): > 1000 nM; EC50 ([1]; MV4;11 cells): 10 to 100 nM; EC50 [9]: 100 to 1000 nM; DC50 (PLK1; 24 h, western blot, read-out: PLK1 DC50 (24 h)): < 10 nM; DC50 (BRD4; 24 h, western blot, read-out: BRD4 DC50 (24 h)): < 10 nM
4 | CC[C@@H]1C(=O)N(C)c2cnc(Nc3ccc(C(=O)NCCOCCNCCCCC(=O)Nc4cccc5c4CN(C4CCC(=O)NC4=O)C5=O)cc3OC)nc2N1Cc1ccc(Br)cc1 (some centres unmarked) [UB-180645] | 10 to 100 | 100 to 1000 | > 1000 |  |  | 
5 | O=C1CCC(N2Cc3c(NC(=O)CNCCOCCOCCOCCOCCNC(=O)[C@]4(Cc5cccc(Nc6nccs6)n5)CC[C@@H](Oc5cccc(Cl)c5F)CC4)cccc3C2=O)C(=O)N1 (some centres unmarked) [UB-180802] | 100 to 1000 | 100 to 1000 |  | > 1000 |  | DC50 (PLK1; 6 h, read-out: PLK1 DC50 (6 h)): < 10 nM
6 | CC(OC(=O)N(CCOCCOCCOCCNC(=O)[C@]1(Cc2cccc(Nc3nccs3)n2)CC[C@@H](Oc2cccc(Cl)c2F)CC1)CC(=O)Nc1cccc2c1CN(C1CCC(=O)NC1=O)C2=O)C(C)SSC[C@H](NC(=O)[C@@H](CC(=O)O)NC(=O)[C@@H](CC(=O)O)NC(=O)[C@@H](CCCNC(=N)N)NC(=O)[C@@H](CC(=O)O)NC(=O)CC[C@H](NC(=O)c1ccc(NCc2cnc3nc(N)[nH]c(=O)c3n2)cc1)C(=O)O)C(=O)O (some centres unmarked) [UB-180839] |  |  |  |  |  | EC50 [5]: 100 to 1000 nM; EC50 (Human Colon Cancer HT-29): 100 to 1000 nM; EC50 [8]: 100 to 1000 nM; EC50 [2]: 100 to 1000 nM
7 | O=C1CCC(N2Cc3c(NC(=O)CNCCOCCOCCOCCOCCNC(=O)c4ccc(Nc5ncc6c(n5)-c5ccc(Cl)cc5C(c5c(F)cccc5F)=NC6)cc4)cccc3C2=O)C(=O)N1 (centres unmarked) [UB-180801] | 100 to 1000 |  |  | > 1000 |  | 
8 | CC[C@@H]1C(=O)N(C)c2cnc(Nc3ccc(C(=O)NCCOCCOCCOCCNCCCCCC(=O)Nc4cccc5c4CN(C4CCC(=O)NC4=O)C5=O)cc3OC)nc2N1Cc1ccc(Br)cc1 (some centres unmarked) [UB-180644] | 10 to 100 | > 1000 | > 1000 |  |  | 
9 | CC[C@@H]1C(=O)N(C)c2cnc(Nc3ccc(C(=O)NCc4cn(CCNCCOCC(=O)Nc5cccc6c5CN(C5CCC(=O)NC5=O)C6=O)nn4)cc3OC)nc2N1C1CCCC1 (some centres unmarked) [UB-180719] | 10 to 100 |  |  |  | 100 to 1000 | DC50 (PLK1; 6 h, read-out: PLK1 DC50 (nM) (6 h)): 10 to 100 nM; DC50 (PLK1; 24 h, read-out: PLK1 DC50 (nM) (24 h)): < 10 nM; DC50 (BRD4; 6 h, read-out: BRD4 DC50 (nM) (6 h)): < 10 nM; DC50 (BRD4; 24 h, read-out: BRD4 DC50 (nM) (24 h)): < 10 nM
10 | CC[C@@H]1C(=O)N(C)c2cnc(Nc3ccc(C(=O)NCCOCCOCCOCCNCCC(=O)Nc4cccc5c4CN(C4CCC(=O)NC4=O)C5=O)cc3OC)nc2N1Cc1ccc(Br)cc1 (some centres unmarked) [UB-180634] | < 10 | > 1000 | > 1000 | 100 to 1000 | 100 to 1000 | EC50 ([5]; Homo sapiens): 100 to 1000 nM; EC50 [6]: 100 to 1000 nM; EC50 ([8]; Homo sapiens): 100 to 1000 nM; EC50 [9]: 100 to 1000 nM
11 | CC[C@@H]1C(=O)N(C)c2cnc(Nc3ccc(C(=O)NCCCNCCCC(=O)Nc4cccc5c4CN(C4CCC(=O)NC4=O)C5=O)cc3OC)nc2N1Cc1ccc(Br)cc1 (some centres unmarked) [UB-180637] | 10 to 100 | > 1000 | > 1000 |  |  | 
12 | CC[C@@H]1C(=O)N(C)c2cnc(Nc3ccc(C(=O)NCc4cn(CCNCCCC(=O)Nc5cccc6c5CN(C5CCC(=O)NC5=O)C6=O)nn4)cc3OC)nc2N1C1CCCC1 (some centres unmarked) [UB-180681] |  |  | 100 to 1000 | 100 to 1000 | 100 to 1000 | EC50 [7]: 100 to 1000 nM; EC50 ([8]; Homo sapiens): 100 to 1000 nM; EC50 ([1]; MV4;11 cells): < 10 nM; EC50 [9]: 100 to 1000 nM; DC50 (PLK1; 6 h, western blot, read-out: PLK1 DC50 (6 h)): 100 to 1000 nM; DC50 (BRD4; 6 h, western blot, read-out: BRD4 DC50 (6 h)): < 10 nM
